Laboratory results: paper PMC8236845
Where a name gives a salt, the structure may show the parent alone. Read-outs that look alike come from different tables or passages of the source. Numbered stars: 1 amine (or outer) side, 2 acyl side, 3 side chain; on linkers, the order of the positions; unused ones are H or OH. Bridge positions count the residues as written; N and C are the ends. Square brackets hold non-standard residues; d marks the D form. Peptide text beside a SMILES is read from it. * marks the point of attachment. pTerphenylCO(4''-OnC5H11) = CCCCCOc1ccc(-c2ccc(-c3ccc(C(=O)*)cc3)cc2)cc1; Orn(4R-OH,5R-OH) = O=C([C@H](C[C@@H](O)[C@@H](O)N[*:3])N[*:1])[*:2]; Tetradecanoyl(10R,12S-Me2) = CC[C@H](C)C[C@H](C)CCCCCCCCC(=O)*; hTyr(3S-OH,4S-OH) = N[C@H](C(=O)O)[C@H](O)[C@@H](O)c1ccc(O)cc1; Pro(3S-OH,4S-Me) = C[C@H]1CN[C@H](C(=O)O)[C@H]1O; Gln(3R-OH) = NC(=O)C[C@@H](O)[C@H](N)C(=O)O; Pro(3S-OH) = O=C(O)[C@H]1NCC[C@@H]1O; Hyp = O=C(O)[C@@H]1C[C@@H](O)CN1

Biological target: binding of recombinant, trimeric SARS-CoV-2 spike protein to recombinant human ACE2 (Severe acute respiratory syndrome coronavirus 2, UniProt P0DTC2, K986P/R682G/R683S/R685S/V987P)
Assay: biochemical
Design: species or system SARS-CoV-2 / human

Structure (SMILES) | % Inhibition | further results
CCN(CC)Cc1cc(Nc2ccnc3cc(Cl)ccc23)ccc1O [Amodiaquine hydrochloride] | 90% | 
CCCCCOc1ccc(-c2ccc(-c3ccc(C(=O)N[C@H]4C[C@@H](O)[C@@H](O)NC(=O)[C@@H]5[C@@H](O)[C@@H](C)CN5C(=O)[C@H]([C@@H](C)O)NC(=O)[C@H]([C@H](O)[C@@H](O)c5ccc(O)cc5)NC(=O)[C@@H]5C[C@@H](O)CN5C(=O)[C@H]([C@@H](C)O)NC4=O)cc3)cc2)cc1 [Anidulafungin] ({pTerphenylCO(4''-OnC5H11)}-[Orn(4R-OH,5R-OH)]T[Hyp][hTyr(3S-OH,4S-OH)]T[Pro(3S-OH,4S-Me)]; lactam 1-C) | 99% | 
CCOc1cc([C@@H](CS(C)(=O)=O)N2C(=O)c3cccc(NC(C)=O)c3C2=O)ccc1OC [Apremilast (CC-10004), Apremilast] | 96% | 
C[C@@H](O[C@H]1OCCN(Cc2n[nH]c(=O)[nH]2)[C@H]1c1ccc(F)cc1)c1cc(C(F)(F)F)cc(C(F)(F)F)c1 [Aprepitant] | 94% | 
CCOC(=O)c1c(CSc2ccccc2)n(C)c2cc(Br)c(O)c(CN(C)C)c12.Cl [Arbidol HCl] | 95% | 
COc1ccc(CN=c2[nH]c(N3CCC[C@H]3CO)ncc2C(=O)NCc2ncccn2)cc1Cl [Avanafil] | 99% | 
CC[C@@]1(O)C(=O)OCc2c1cc1n(c2=O)Cc2c-1nc1ccccc1c2CCNC(C)C [Belotecan] |  | inhibition of spike-ACE2 binding in the screen: did not inhibit
O=C(O)CCCC[C@@H]1SC[C@@H]2NC(=O)N[C@@H]21 [Biotin (Vitamin B7), Biotin] | 91% | 
CO[C@H]1C(=O)[C@]2(C)[C@@H](OC)C[C@H]3OC[C@@]3(OC(C)=O)[C@H]2[C@H](OC(=O)c2ccccc2)[C@]2(O)C[C@H](OC(=O)[C@H](O)[C@@H](NC(=O)OC(C)(C)C)c3ccccc3)C(C)=C1C2(C)C [Cabazitaxel] | 86% | 
CO/N=C(\C(=O)N[C@@H]1C(=O)N2C(C(=O)OCOC(=O)C(C)(C)C)=C(/C=C\c3scnc3C)CS[C@H]12)c1csc(N)n1 [Cefditoren Pivoxil] | 96% | 
CON=C(C(=O)NC1C(=O)N2C(C(=O)OCOC(=O)C(C)(C)C)=C(C)CSC12)c1csc(N)n1 (stereo not drawn) [Cefetamet Pivoxil Hydrochloride] | 94% | 
Cc1ccc(-c2cc(C(F)(F)F)nn2-c2ccc(S(N)(=O)=O)cc2)cc1 [Celecoxib] | 93% | IC50: 61.5 µM
COc1ccc2cc1Oc1ccc(cc1)C[C@H]1c3c(cc4c(c3Oc3cc5c(cc3OC)CCN(C)[C@@H]5C2)OCO4)CCN1C [Cepharanthine] | 94% | 
O=C(O)c1cn(C2CC2)c2cc(N3CCNCC3)c(F)cc2c1=O [Ciprofloxacin Hydrochloride Hydrate] | 93% | 
C[C@@H](Oc1cc(-c2cnn(C3CCNCC3)c2)cnc1N)c1c(Cl)ccc(F)c1Cl [Crizotinib (PF-02341066), Crizotinib] |  | % Inhibition, Screen: 55%
CN(C)c1ccc(C(=C2C=CC(=[N+](C)C)C=C2)c2ccc(N(C)C)cc2)cc1 [Crystal Violet] | 98% | 
COC(=O)N[C@H](C(=O)N1CCC[C@H]1c1nc(-c2ccc(-c3ccc(-c4c[nH]c([C@@H]5CCCN5C(=O)[C@@H](NC(=O)OC)C(C)C)n4)cc3)cc2)c[nH]1)C(C)C [Daclatasvir Dihydrochloride] | 97% | 
COC(=O)N[C@H](C(=O)N1CCC[C@H]1c1nc(-c2ccc(-c3ccc(-c4c[nH]c([C@@H]5CCCN5C(=O)[C@@H](NC(=O)OC)C(C)C)n4)cc3)cc2)c[nH]1)C(C)C [Daclatasvir] | 99% | 
Cc1nc(Nc2ncc(C(=O)Nc3c(C)cccc3Cl)s2)cc(N2CCN(CCO)CC2)n1.Cl [Dasatinib HCl] | 98% | EC50 (read-out: EC50 (corrected)): 65.9 µM
CN1C[C@H](C(=O)N[C@]2(C)O[C@@]3(O)[C@@H]4CCCN4C(=O)[C@H](Cc4ccccc4)N3C2=O)C[C@@H]2c3cccc4[nH]cc(c34)C[C@H]21 [Dihydroergotamine Mesylate] | 94% | 
CC(=O)O[C@@]12CO[C@@H]1C[C@H](O)[C@@]1(C)C(=O)[C@H](O)C3=C(C)[C@@H](OC(=O)[C@H](O)[C@@H](NC(=O)OC(C)(C)C)c4ccccc4)C[C@@](O)([C@@H](OC(=O)c4ccccc4)[C@H]21)C3(C)C [Docetaxel Trihydrate] | 95% | 
CC(=O)O[C@@]12CO[C@@H]1C[C@H](O)[C@@]1(C)C(=O)[C@H](O)C3=C(C)[C@@H](OC(=O)[C@H](O)[C@@H](NC(=O)OC(C)(C)C)c4ccccc4)C[C@@](O)([C@@H](OC(=O)c4ccccc4)[C@H]21)C3(C)C [Docetaxel] |  | % Inhibition, Screen: 98%
CO[C@H]1C[C@H](O[C@H]2[C@H](C)O[C@@H](O[C@@H]3/C(C)=C/C[C@@H]4C[C@@H](C[C@]5(C=C[C@H](C)[C@@H](C6CCCCC6)O5)O4)OC(=O)[C@@H]4C=C(C)[C@@H](O)[C@H]5OC/C(=C\C=C\[C@@H]3C)[C@]54O)C[C@@H]2OC)O[C@@H](C)[C@@H]1O [Doramectin] | 96% | EC50 (read-out: EC 50): 12.8 µM; IC50 (read-out: IC50 Mean): 12.8 µM
CN1CCc2nc(C(=O)N[C@@H]3C[C@@H](C(=O)N(C)C)CC[C@@H]3NC(=O)C(=O)Nc3ccc(Cl)cn3)sc2C1 [Edoxaban] | 95% | 

Structure (SMILES) | % Inhibition | further results
COC(=O)N[C@H](C(=O)N1CCC[C@H]1c1nc(-c2ccc3c(c2)O[C@@H](c2ccccc2)n2c-3cc3cc(-c4c[nH]c([C@@H]5CCCN5C(=O)[C@@H](NC(=O)OC)C(C)C)n4)ccc32)c[nH]1)C(C)C [Elbasvir] | 100% | 
CN1CCN(c2ccc(C(=O)Nc3n[nH]c4ccc(Cc5cc(F)cc(F)c5)cc34)c(NC3CCOCC3)c2)CC1 [Entrectinib] | 90% | IC50: 58.4 µM
C[C@]12CC[C@@H]3c4ccc(OC(=O)c5ccccc5)cc4CC[C@H]3[C@@H]1CC[C@@H]2O [Estradiol benzoate] | 93% | 
CO[C@H]1C[C@@H]2CC[C@@H](C)[C@@](O)(O2)C(=O)C(=O)N2CCCC[C@H]2C(=O)O[C@H]([C@H](C)C[C@@H]2CC[C@@H](OCCO)[C@H](OC)C2)CC(=O)[C@H](C)/C=C(\C)[C@@H](O)[C@@H](OC)C(=O)[C@H](C)C[C@H](C)/C=C/C=C/C=C/1C [Everolimus (RAD001), Everolimus] | 94% | 
N#Cc1nn(-c2c(Cl)cc(C(F)(F)F)cc2Cl)c(N)c1[S+]([O-])C(F)(F)F (stereo not drawn) [Fipronil] | 91% | 
CC[C@@]1(O)C(=O)OCc2c1cc1n(c2=O)Cc2cc3cc(O)ccc3nc2-1 [Hydroxycamptothecin] | 99% | 
Cc1ccc(NC(=O)c2ccc(CN3CCN(C)CC3)cc2)cc1Nc1nccc(-c2cccnc2)n1 [Imatinib] |  | inhibition of spike-ACE2 binding in the screen: failed to inhibit
CCc1c2c(nc3ccc(OC(=O)N4CCC(N5CCCCC5)CC4)cc13)-c1cc3c(c(=O)n1C2)COC(=O)[C@]3(O)CC [Irinotecan] |  | inhibition of spike-ACE2 binding in the screen: did not inhibit
COc1cc(-c2coc3cc4c(c(OC)c3c2=O)OCO4)cc(OC)c1OC [Irisflorentin] | 97% | 
COc1cc2nccc(Oc3ccc(NC(=O)NC4CC4)c(Cl)c3)c2cc1C(N)=O [Lenvatinib Mesylate] | 94% | 
O=C(NC1CCN(CCCCC2(C(=O)NCC(F)(F)F)c3ccccc3-c3ccccc32)CC1)c1ccccc1-c1ccc(C(F)(F)F)cc1 [Lomitapide Mesylate] | 93% | 
OC(c1cc(C(F)(F)F)nc2c(C(F)(F)F)cccc12)C1CCCCN1 (stereo not drawn) [Mefloquine] |  | % inhibition in first-round screen: 77%
CN(C)c1ccc2nc3ccc(=[N+](C)C)cc-3sc2c1 [Methylene Blue] |  | % inhibition in first-round screen: 44%
C[C@@H]1C[C@H]2[C@@H]3CCC4=CC(=O)C=C[C@]4(C)[C@@]3(Cl)[C@@H](O)C[C@]2(C)[C@@]1(OC(=O)c1ccco1)C(=O)CCl [Mometasone furoate] | 98% | 
Cc1c(O)cccc1C(=O)N[C@@H](CSc1ccccc1)[C@H](O)CN1C[C@H]2CCCC[C@H]2C[C@H]1C(=O)NC(C)(C)C [Nelfinavir Mesylate] | 94% | 
Cc1cn(-c2cc(NC(=O)c3ccc(C)c(Nc4nccc(-c5cccnc5)n4)c3)cc(C(F)(F)F)c2)cn1 [Nilotinib AMN-107, Nilotinib] | 99% | 
Cc1cn(-c2cc(NC(=O)c3ccc(C)c(Nc4nccc(-c5cccnc5)n4)c3)cc(C(F)(F)F)c2)cn1.Cl [Nilotinib HCl, Nilotinib Hydrochloride] | 99% | 
CCCCCCCCN=c1ccn(CCCCCCCCCCn2ccc(=NCCCCCCCC)cc2)cc1 [Octenidine Dihydrochloride] | 100% | 
C=CC(=O)Nc1cccc(Oc2nc(Nc3ccc(N4CCN(C)CC4)cc3)nc3ccsc23)c1 [Olmutinib] | 98% | 
COC(=O)N[C@H](C(=O)N1CCC[C@H]1C(=O)Nc1ccc([C@@H]2CC[C@@H](c3ccc(NC(=O)[C@@H]4CCCN4C(=O)[C@@H](NC(=O)OC)C(C)C)cc3)N2c2ccc(C(C)(C)C)cc2)cc1)C(C)C [Ombitasvir (ABT-267), Ombitasvir] | 92% | 
COc1cc([C@@H]2c3cc4c(cc3[C@H](O)[C@H]3COC(=O)[C@@H]23)OCO4)cc(OC)c1OC [Picropodophyllin] | 98% | 
CC[C@H](C)C[C@H](C)CCCCCCCCC(=O)N[C@H]1C[C@@H](O)[C@@H](O)NC(=O)[C@@H]2[C@@H](O)CCN2C(=O)[C@H]([C@H](O)CC(N)=O)NC(=O)[C@H]([C@H](O)[C@@H](O)c2ccc(O)cc2)NC(=O)[C@@H]2C[C@@H](O)CN2C(=O)[C@H]([C@@H](C)O)NC1=O [Pneumocandin B0] ({Tetradecanoyl(10R,12S-Me2)}-[Orn(4R-OH,5R-OH)]T[Hyp][hTyr(3S-OH,4S-OH)][Gln(3R-OH)][Pro(3S-OH)]; lactam 1-C) | 98% | EC50 (read-out: EC50 (corrected)): 72.8 µM
CC[C@@H]([C@H](C)O)n1ncn(-c2ccc(N3CCN(c4ccc(OC[C@@H]5CO[C@@](Cn6cncn6)(c6ccc(F)cc6F)C5)cc4)CC3)cc2)c1=O [Posaconazole] | 97% | 
CC[C@@]1(O)C(=O)OCc2c1cc1n(c2=O)Cc2cc3cc(O)ccc3nc2-1 [S-(10)-hydroxycamptothecin, (S)-10-Hydroxycamptothecin] | 100% | 
